From patent publication US9802957B2, “Processes of preparing a JAK1 inhibitor and new forms thereto” (Incyte Corporation, priority 2014, dated 2017)

Assays:
[1] = Dynamic Vapor Sorption (DVS) study; type: physicochemical
Method: Some of the compounds prepared were analyzed using Dynamic Vapor Sorption (DVS). Typical DVS conditions are as follows: SGA-100 Symmetric Vapor Sorption Analyzer from VTI Corporation. The moisture uptake profile was completed in four cycles in 10% relative humidity (RH) increments with the first adsorption from 25% to 95% RH, followed by desorption in 10% increments from 95% to 5% RH. The equilibration criteria were 0.0050 wt % in 5 minutes with a maximum equilibration time of 180 minutes; Data logging interval: 2.00 min or 0.0100 wt %. All adsorption and desorption were performed at room temperature (25° C.). No pre-drying step was applied.
A Dynamic Vapor Sorption (DVS) study was conducted on the compound of Example 9 to monitor the hydroscopicity, hydrate formation and dehydration, as well as solid form transformation. The moisture uptake profile was completed in four cycles in 10% relative humidity (RH) increments with the first adsorption from 25% to 95% RH, followed by desorption in 10% increments from 95% to 5% RH. The equilibration criteria were as follows: 0.0050 wt % in 5 minutes with a maximum equilibration time of 180 minutes. All adsorption and desorption were performed at room temperature (25° C.). No pre-drying step was applied for the sample.

[2] = Humidity Chamber Study A; type: physicochemical; details: 40° C., 75% relative humidity, 5 days
Method: Temperature: 40° C.; Relative humidity: 75%; Time: 5 days.
The compound of Example 9 was placed in a humidity chamber set at 40° C. and 75% relative humidity for 5 days.

[3] = Humidity Chamber Study B; type: physicochemical; details: 30° C., 90% relative humidity, 7 days
Method: Temperature: 30° C.; Relative humidity: 90%; Time: 7 days.
The compound of Example 9 was placed in a humidity chamber set at 30° C. and 90% relative humidity (RH) for 7 days. […] The XRPD patterns of the 30° C./90% RH sample corresponded to the hydrate form obtained from an aqueous suspension of the anhydrous crystalline free base drug substance.

[4] = tested on: human JAK1 (a.a. 837-1142); assay: In vitro JAK kinase assay (HTRF), JAK1; type: biochemical
Method: (§1) Compounds herein were tested for inhibitory activity of JAK targets according to the following in vitro assay described in Park et al., Analytical Biochemistry 1999, 269, 94-104. The catalytic domains of human JAK1 (a.a. 837-1142), JAK2 (a.a. 828-1132) and JAK3 (a.a. 781-1124) were expressed using baculovirus in insect cells and purified. The catalytic activity of JAK1, JAK2 or JAK3 was assayed by measuring the phosphorylation of a biotinylated peptide. The phosphorylated peptide was detected by homogenous time resolved fluorescence (HTRF). IC50s of compounds were measured for each kinase in the 40 μL, reactions that contain the enzyme, ATP and 500 nM peptide in 50 mM Tris (pH 7.8) buffer with 100 mM NaCl, 5 mM DTT, and 0.1 mg/mL (0.01%) BSA. For the 1 mM IC50 measurements, ATP concentration in the reactions was 1 mM. Reactions were carried out at room temperature for 1 hour and then stopped with 20 μL 45 mM EDTA, 300 nM SA-APC, 6 nM Eu-Py20 in assay buffer (Perkin Elmer, Boston, Mass.). Binding to the Europium labeled antibody took place for 40 minutes and HTRF signal was measured on a PHERAi star plate reader (BMG, Cary, N.C.).

[5] = molecular target: T1, human JAK1 (a.a. 837-1142) (Homo sapiens, UniProt P23458); assay: In vitro JAK kinase assay (HTRF), JAK1; type: biochemical; details: 1 mM ATP
T1 construct: The catalytic domains of human JAK1 (a.a. 837-1142); made in house; host or cells: insect cells (baculovirus)
Method: as §1

[6] = molecular target: T2, human JAK2 (a.a. 828-1132) (Homo sapiens, UniProt O60674); assay: In vitro JAK kinase assay (HTRF), JAK2; type: biochemical; details: 1 mM ATP
T2 construct: JAK2 (a.a. 828-1132); made in house; host or cells: insect cells (baculovirus)
Method: as §1

T2 sequence (O60674 828-1132): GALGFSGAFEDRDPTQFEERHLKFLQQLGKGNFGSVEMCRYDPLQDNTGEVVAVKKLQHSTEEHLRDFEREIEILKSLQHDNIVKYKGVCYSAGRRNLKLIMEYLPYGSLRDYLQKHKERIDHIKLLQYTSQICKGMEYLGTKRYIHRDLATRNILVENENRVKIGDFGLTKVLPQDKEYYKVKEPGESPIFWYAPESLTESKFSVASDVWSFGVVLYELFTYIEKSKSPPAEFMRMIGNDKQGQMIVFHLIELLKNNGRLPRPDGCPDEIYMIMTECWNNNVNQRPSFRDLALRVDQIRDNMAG
T1 sequence (P23458 849-1154): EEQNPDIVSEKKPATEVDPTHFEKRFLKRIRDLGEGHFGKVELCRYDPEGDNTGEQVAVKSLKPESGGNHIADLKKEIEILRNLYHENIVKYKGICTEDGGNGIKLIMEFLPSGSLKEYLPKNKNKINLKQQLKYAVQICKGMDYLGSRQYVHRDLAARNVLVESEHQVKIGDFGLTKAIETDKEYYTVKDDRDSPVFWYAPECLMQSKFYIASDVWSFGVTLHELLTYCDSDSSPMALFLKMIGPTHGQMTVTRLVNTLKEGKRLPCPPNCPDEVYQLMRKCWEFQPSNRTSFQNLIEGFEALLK

SMILES: C[C@@H](O)c1nc2cnc3ccsc3c2n1[C@H]1CC[C@H](CC#N)OC1 [Example 9, 2-((2R,5S)-5-(2-((R)-1-hydroxyethyl)-1H-imidazo[4,5-d]thieno[3,2-b]pyridin-1-yl)tetrahydro-2H-pyran-2-yl)acetonitrile]
- Water absorption of the anhydrous form ([1]; DVS, 25° C., four cycles, 5% to 95% RH): slow below 85% RH and fast above 85% RH
- Solid form after DVS cycle 4 ([1]; DVS, 25° C., XRPD before and after): fully converted to the hydrate form
- Behaviour under ambient storage conditions ([1]; ambient storage): slowly absorb water and convert to hydrate form
- Solid form by XRPD after humidity chamber [2]: converted to the crystalline hydrate form
- Water content by KF after humidity chamber [2]: 4.6%
- Weight loss observed by TGA after humidity chamber [2]: 5.01%
- Solid form by XRPD after humidity chamber [3]: converted to the crystalline hydrate form
- Water content by KF after humidity chamber [3]: 4.72%
- Weight loss observed by TGA after humidity chamber [3]: 5.05%

SMILES: C[C@@H](O)c1nc2cnc3ccsc3c2n1[C@H]1CC[C@H](CC#N)OC1 [Formula Ia, 2-((2R,5S)-5-(2-((R)-1-hydroxyethyl)-1H-imidazo[4,5-d]thieno[3,2-b]pyridin-1-yl)tetrahydro-2H-pyran-2-yl)acetonitrile]
- JAK2/JAK1 ratio ([4]; 1 mM ATP, ratio of IC50s): > 10
- JAK2/JAK1 IC50 ratio ([4]; general statement of selectivity for JAK1 over JAK2): > 10
- IC50 [5]: ≤ 100 nM
- IC50 [6]: ≤ 1000 nM

SMILES: C[C@@H](O)c1nc2cnc3ccsc3c2n1[C@H]1CC[C@H](CC#N)OC1 [Example 10, 2-((2R,5S)-5-(2-((R)-1-hydroxyethyl)-1H-imidazo[4,5-d]thieno[3,2-b]pyridin-1-yl)tetrahydro-2H-pyran-2-yl)acetonitrile monohydrate]
- Dehydration process from the hydrate to the anhydrous form ([1]; DVS desorption, 25° C.): very slow, even at 5% RH
- Physical stability to humidity ([1]; DVS, 25° C.): physically stable in a wide range of humidity conditions
